Measured values taken from US20220235064A1 (WELLMARKER BIO CO., LTD., priority 2019, published 2022).

Experiments:
[1] = tested on: cancer cell line HT29, in which mutated RON (Δ160) is expressed; test: Cell-killing efficacy in RON-mutated cancer cell line HT29 (trypan blue); assay type: cell-based; conditions: for cytotoxicity at 1 µM / cytotoxicity at 5 µM: Homo sapiens, HT-29, 48 hours, trypan blue, n=2, read-out: Cell death (%) Cancer cell line HT29; for cell-killing effect (in words): HT29, as compared with the positive control
Experimental: (§1) Experimental Example 4: Measurement of Cell-Killing Efficacy of Example Compounds in RON-Mutated Cancer Cell Lines
(§2) Each of two colorectal cancer cell lines, that is, the cancer cell line HT29 (30038, KCLB, RPMI+10% FBS), in which mutated RON (Δ160) is expressed, and the cancer cell line SW620 (CCL-227, ATCC, RPMI+10% FBS), in which mutated RON (Δ155) is expressed, was dispensed into each 60 mm^2 dish at 1×10^5 cells. After 24 hours, the dish was treated with each of the example compounds at a concentration of 1 μM or 5 μM while performing medium exchange, and then reaction was allowed to proceed for 48 hours. After 48 hours, centrifugation was performed for 4 minutes at 1,500 rpm to collect cells and cell fluid. Thereafter, living cells and dead cells were quantified (n=2) using a trypan blue solution (15250-061, Gibco), and statistical analysis was performed using Excel-T-test. Here, as a negative control, only a solvent (0.10% DMSO) was used; and as a positive control, N-(4-(2-amino-3-chloropyridin-4-yloxy)-3-fluorophenyl)-4-ethoxy-1-(4-fluorophenyl)-2-oxo-1,2-dihydropyridine-3-carboxamide, which is the compound of Example 1 in WO 2008/058229 A1, was used.

[2] = tested on: cancer cell line SW620, in which mutated RON (Δ155) is expressed; test: Cell-killing efficacy in RON-mutated cancer cell line SW620 (trypan blue); assay type: cell-based; conditions: for cytotoxicity at 1 µM / cytotoxicity at 5 µM: Homo sapiens, SW-620, 48 hours, trypan blue, n=2, read-out: Cell death (%) Cancer cell line SW620; for cell-killing effect (in words): SW620, as compared with the positive control
Experimental: as §1, §2

[3] = tested on: cancer cell line KM12C, in which RON is activated; test: Cell-killing efficacy in RON-activated cancer cell line (trypan blue); assay type: cell-based; conditions: for cytotoxicity at 1 µM / cytotoxicity at 5 µM: Homo sapiens, 48 hours, trypan blue, n=2, read-out: Cell death (%) Cancer cell line KM12C; for cell-killing effect (in words): as compared with the positive control
Method in brief: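 KM12C cells seeded 1×10^5 per 60 mm^2 dish in MEM + 10% FBS, then exposed 24 h later to compound at 1 μM or 5 μM for 48 h.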

[4] = tested on: cancer cell line KM12C, in which RON is activated; test: Cell growth inhibitory ability in RON-activated cancer cell line (MTS); assay type: cell-based; conditions: Homo sapiens, 48 hours, absorbance 490 nm
Method in brief: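 KM12C cells (RON-activated, MEM with FBS) exposed to compound […] for 48 h. MTS added 24 h after treatment ended, incubated 4 h at 37° C, absorbance read at 490 nm. IC50 derived from absorbance.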

RON tyrosine kinase = biological target: T1, RON tyrosine kinase (Homo sapiens, UniProt Q04912); test: Enzyme inhibitory activity against RON tyrosine kinase (TR-FRET); assay type: biochemical; conditions: RON (Carna Bioscience)
T1 construct: purchased Carna Bioscience
Method in brief: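 Recombinant RON was preincubated with compound for 15 min at RT in 50 mM HEPES pH 7.5, 10 mM MgCl2, 1 mM EGTA, 2 mM DTT, 0.01% Tween-20. Enzyme (0.4 nM), ATP (60 μM) and tyrosine peptide (400 nM) were prepared at 2×, 4× and 4× final. After 60 min at RT, EDTA/Eu-anti-phosphotyrosine stop; IC50 from 665 nm TR-FRET emission.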

T1 sequence (Q04912 25-1400): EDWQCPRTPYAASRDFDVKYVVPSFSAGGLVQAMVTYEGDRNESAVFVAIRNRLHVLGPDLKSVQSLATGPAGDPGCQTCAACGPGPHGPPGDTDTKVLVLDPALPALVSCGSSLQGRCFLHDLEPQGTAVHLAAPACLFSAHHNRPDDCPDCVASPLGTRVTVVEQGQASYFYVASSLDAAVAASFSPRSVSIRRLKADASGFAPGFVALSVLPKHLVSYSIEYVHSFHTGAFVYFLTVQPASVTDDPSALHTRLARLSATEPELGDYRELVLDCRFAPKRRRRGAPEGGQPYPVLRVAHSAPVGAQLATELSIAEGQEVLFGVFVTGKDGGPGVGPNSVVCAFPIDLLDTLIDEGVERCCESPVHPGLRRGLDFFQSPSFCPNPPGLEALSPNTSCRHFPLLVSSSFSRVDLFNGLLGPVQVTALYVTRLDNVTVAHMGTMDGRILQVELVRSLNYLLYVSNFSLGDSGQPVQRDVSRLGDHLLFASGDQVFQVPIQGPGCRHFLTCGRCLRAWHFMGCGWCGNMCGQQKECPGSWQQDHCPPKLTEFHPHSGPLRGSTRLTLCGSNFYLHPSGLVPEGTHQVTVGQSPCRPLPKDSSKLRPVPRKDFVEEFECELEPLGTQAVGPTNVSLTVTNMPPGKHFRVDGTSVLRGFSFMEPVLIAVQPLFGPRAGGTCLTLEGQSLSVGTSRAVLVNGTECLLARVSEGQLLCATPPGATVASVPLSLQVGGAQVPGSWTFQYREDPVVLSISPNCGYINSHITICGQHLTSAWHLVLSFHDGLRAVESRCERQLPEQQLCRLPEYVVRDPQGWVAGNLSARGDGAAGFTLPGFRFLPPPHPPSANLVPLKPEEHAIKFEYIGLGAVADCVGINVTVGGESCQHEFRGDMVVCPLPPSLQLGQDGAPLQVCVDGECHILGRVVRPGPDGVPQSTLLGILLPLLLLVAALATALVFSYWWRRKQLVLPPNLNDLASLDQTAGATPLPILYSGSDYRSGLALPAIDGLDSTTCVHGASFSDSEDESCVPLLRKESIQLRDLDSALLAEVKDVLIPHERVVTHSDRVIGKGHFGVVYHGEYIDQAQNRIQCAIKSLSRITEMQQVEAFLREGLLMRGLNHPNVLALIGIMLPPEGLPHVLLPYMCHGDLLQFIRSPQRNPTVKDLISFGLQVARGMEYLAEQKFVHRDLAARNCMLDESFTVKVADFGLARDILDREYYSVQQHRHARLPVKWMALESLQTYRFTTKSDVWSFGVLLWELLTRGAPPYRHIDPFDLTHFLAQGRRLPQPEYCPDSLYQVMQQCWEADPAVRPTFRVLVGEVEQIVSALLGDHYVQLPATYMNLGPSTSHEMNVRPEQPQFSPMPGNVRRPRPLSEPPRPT

Compound | IC50 [4] | IC50 (RON tyrosine kinase) | cytotoxicity at 1 µM [1] | cytotoxicity at 5 µM [1] | cytotoxicity at 1 µM [2] | cytotoxicity at 5 µM [2] | cytotoxicity at 1 µM [3] | cytotoxicity at 5 µM [3] | cell-killing effect (in words) [1] | cell-killing effect (in words) [2] | cell-killing effect (in words) [3]
Cn1cnc(-c2cc3nccc(Oc4ccc(NC(=O)c5c6c(cn(-c7ccc(F)cc7)c5=O)CCO6)cc4F)c3s2)c1 [Example 8, N-(3-Fluoro-4-((2-(1-methyl-1H-imidazol-4-yl)thieno[3,2-b]pyridin-7-yl)oxy)phenyl)-5-(4-fluorophenyl)-6-oxo-2,3,5,6-tetrahydrofuro[3,2-c]pyridine-7-carboxamide] | 0.3 nM | 0.66 nM | 4.88% | 16.8% | 5.98% | 7.83% | 32.4% | 46.9% | – | – | –
COc1cc2nccc(Oc3ccc(NC(=O)c4c5c(cn(-c6ccc(F)cc6)c4=O)CCO5)cc3F)c2cc1NC(C)=O [Example 52, N-(4-((6-Acetamido-7-methoxyquinolin-4-yl)oxy)-3-fluorophenyl)-5-(4-fluorophenyl)-6-oxo-2,3,5,6-tetrahydrofuro[3,2-c]pyridine-7-carboxamide] | 1 nM | 1.83 nM | 10.5% | 16.1% | 13.6% | 81.8% | 10.1% | 24.7% | – | – | –
O=C(Nc1ccc(Oc2ccnc3cc(OCCCN4CCOCC4)ccc23)c(F)c1)c1c2c(cn(-c3ccc(F)cc3)c1=O)CCO2 [Example 158, N-(3-Fluoro-4-((7-(3-morpholinopropoxy)quinolin-4-yl)oxy)phenyl)-5-(4-fluorophenyl)-6-oxo-2,3,5,6-tetrahydrofuro[3,2-c]pyridine-7-carboxamide] | 5 nM | 1.99 nM | 15.2% | 30.9% | 11.6% | 92.3% | 24.1% | 37.1% | – | – | –
COc1cc2c(Oc3ccc(NC(=O)c4c5c(cn(-c6ccc(F)cc6)c4=O)CCO5)cc3F)ccnc2cc1NC(C)=O [Example 184, N-(4-((7-Acetamido-6-methoxyquinolin-4-yl)oxy)-3-fluorophenyl)-5-(4-fluorophenyl)-6-oxo-2,3,5,6-tetrahydrofuro[3,2-c]pyridine-7-carboxamide] | 2 nM | 0.92 nM | 7.9% | 23.2% | 5% | 29.8% | 13.8% | 54.2% | – | – | –
COc1cc2nccc(Oc3ccc(NC(=O)c4c5c(cn(-c6ccc(F)cc6)c4=O)CCO5)cc3F)c2cc1NCCN1CCOCC1 [Example 185, N-(3-Fluoro-4-((7-methoxy-6-((2-morpholinoethyl)amino)quinolin-4-yl)oxy)phenyl)-5-(4-fluorophenyl)-6-oxo-2,3,5,6-tetrahydrofuro[3,2-c]pyridine-7-carboxamide] | 1 nM | 4.67 nM | 5.1% | 32.4% | 28.1% | 70.2% | 32.5% | 63.8% | high cell-killing effect | high cell-killing effect | high cell-killing effect
COc1cc2c(Oc3ccc(NC(=O)c4c5c(cn(-c6ccc(F)cc6)c4=O)CCO5)cc3F)ccnc2cc1NCCN1CCOCC1 [Example 187, N-(3-Fluoro-4-((6-methoxy-7-((2-morpholinoethyl)amino)quinolin-4-yl)oxy)phenyl)-5-(4-fluorophenyl)-6-oxo-2,3,5,6-tetrahydrofuro[3,2-c]pyridine-7-carboxamide] | 6 nM | 3.86 nM | 8.4% | 34.3% | 23.9% | 50.5% | 20.4% | 60% | high cell-killing effect | high cell-killing effect | high cell-killing effect
CCOc1ccn(-c2ccc(F)cc2)c(=O)c1C(=O)Nc1ccc(Oc2ccnc(N)c2Cl)c(F)c1 [Positive control, N-(4-(2-amino-3-chloropyridin-4-yloxy)-3-fluorophenyl)-4-ethoxy-1-(4-fluorophenyl)-2-oxo-1,2-dihydropyridine-3-carboxamide, reference compound] | 133 nM | – | 10.4% | 16.1% | 3.46% | 9.28% | 9.94% | 12.8% | – | – | –

Now from value to compound, other results behind:

IC50 [4] | IC50 (RON tyrosine kinase) | Compound | cytotoxicity at 1 µM [1] | cytotoxicity at 5 µM [1] | cytotoxicity at 1 µM [2] | cytotoxicity at 5 µM [2] | cytotoxicity at 1 µM [3] | cytotoxicity at 5 µM [3] | cell-killing effect (in words) [1] | cell-killing effect (in words) [2] | cell-killing effect (in words) [3]
4 nM | 1.79 nM | COc1cc2c(Oc3ccc(NC(=O)c4c5c(cn(-c6ccc(F)cc6)c4=O)CCO5)cc3F)ccnc2cc1OCCCN1CCOCC1 [Example 76, N-(3-Fluoro-4-((6-methoxy-7-(3-morpholinopropoxy)quinolin-4-yl)oxy)phenyl)-5-(4-fluorophenyl)-6-oxo-2,3,5,6-tetrahydrofuro[3,2-c]pyridine-7-carboxamide] | 21.9% | 28.6% | 46.4% | 67.8% | 35.7% | 38.3% | high cell-killing effect | high cell-killing effect | high cell-killing effect
3 nM | – | COc1cc2c(Oc3ccc(NC(=O)c4c5c(cn(-c6ccc(F)cc6)c4=O)CCO5)cc3F)ccnc2cc1OCCN1CC(C#N)C1 [Example 125] | 39.4% | 67.8% | 60.9% | 91.5% | 22.3% | 39.6% | high cell-killing effect | high cell-killing effect | high cell-killing effect
2 nM | – | COc1cc2c(Oc3ccc(NC(=O)c4c5c(cn(-c6ccc(F)cc6)c4=O)CCO5)cc3F)ccnc2cc1OCCN1CCC(F)(F)C1 [Example 134, N-(4-((7-(2-(3,3-Difluoropyrrolidin-1-yl)ethoxy)-6-methoxyquinolin-4-yl)oxy)-3-fluorophenyl)-5-(4-fluorophenyl)-6-oxo-2,3,5,6-tetrahydrofuro[3,2-c]pyridine-7-carboxamide] | 47% | 82.2% | 76.1% | 82.8% | 35.5% | 47.4% | high cell-killing effect | high cell-killing effect | high cell-killing effect
2 nM | – | COc1cc2c(Oc3ccc(NC(=O)c4c5c(cn(-c6ccc(F)cc6)c4=O)CCO5)cc3F)ccnc2cc1OCCN1CCC(F)(F)CC1 [Example 145, N-(4-((7-(2-(4,4-Difluoropiperidin-1-yl)ethoxy)-6-methoxyquinolin-4-yl)oxy)-3-fluorophenyl)-5-(4-fluorophenyl)-6-oxo-2,3,5,6-tetrahydrofuro[3,2-c]pyridine-7-carboxamide] | 16.4% | 81.4% | 11% | 87.1% | 25.7% | 45.4% | – | – | –
2 nM | 5.92 nM | COc1cc2c(Oc3ccc(NC(=O)c4c5c(cn(-c6ccc(F)cc6)c4=O)CCO5)cc3F)ccnc2cc1N [Example 181, N-(4-((7-Amino-6-methoxyquinolin-4-yl)oxy)-3-fluorophenyl)-5-(4-fluorophenyl)-6-oxo-2,3,5,6-tetrahydrofuro[3,2-c]pyridine-7-carboxamide] | 10.2% | 99.1% | 11.3% | 35% | 14.6% | 36.8% | – | – | –
